Laboratory results taken from patent US12258327B2, “5-membered heteroaryl-containing aminopyridine compounds as EGFR inhibitors” (YUHAN CORPORATION, priority 2021, dated 2025).
pIC50: −log10 of the molar value. Read-outs that look alike come from different tables or passages of the source.

Key:
EGFR L858R/C797S = EGFR L858R/C797S (Homo sapiens, UniProt P00533, C797S/L858R); assay: Biochemical EGFR kinase assay (Lance Ultra TR-FRET), double mutant L858R/C797S
In short: (§1)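 Kinase activity is measured by TR-FRET phosphopeptide detection. Compounds span 0.003 μM to 10 μM; the 1 h reaction at room temperature is quenched with EDTA, then labelled antibody (2 nM) is incubated 60 min before reading.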

EGFR del19/T790M/C797S = EGFR del19/T790M/C797S (Homo sapiens, UniProt P00533, C797S/DEL746-750/T790M); assay: Biochemical EGFR kinase assay (Lance Ultra TR-FRET), triple mutant del19/T790M/C797S
In short: as §1

EGFR del19/C797S = EGFR del19/C797S (Homo sapiens, UniProt P00533, C797S/DEL746-750); assay: Biochemical EGFR kinase assay (Lance Ultra TR-FRET), double mutant del19/C797S
In short: as §1

EGFR L858R/T790M/C797S = EGFR L858R/T790M/C797S (Homo sapiens, UniProt P00533, C797S/L858R/T790M); assay: Biochemical EGFR kinase assay (Lance Ultra TR-FRET), triple mutant L858R/T790M/C797S
In short: as §1

EGFR wildtype (WT) = EGFR wildtype (WT) (Homo sapiens, UniProt P00533); assay: Biochemical EGFR kinase assay (Lance Ultra TR-FRET), wildtype
In short: as §1

[1] = Km ATP, read-out: IC50 L858R/C797S (nM) Km ATP
[2] = Km ATP, read-out: IC50 del19/T790M/C797S (nM) Km ATP
[3] = Km ATP, read-out: IC50 del19/C797S (nM) Km ATP
[4] = Km ATP, read-out: IC50 L858R/T790M/C797S (nM) Km ATP
[5] = Km ATP, read-out: IC50 WT (nM) Km ATP
[6] = IC50 L858R/C797S (nM) 100 μM ATP, 100 μM ATP
[7] = IC50 del19/T790M/C797S (nM) 100 μM ATP, 100 μM ATP
[8] = IC50 del19/C797S (nM) 100 μM ATP, 100 μM ATP
[9] = IC50 L858R/T790M/C797S (nM) 100 μM ATP, 100 μM ATP
[10] = IC50 WT (nM) 100 μM ATP, 100 μM ATP

Sequence of EGFR del19/T790M/C797S (P00533 with tags, fused parts or gaps DEL746-750/T790M/C797S): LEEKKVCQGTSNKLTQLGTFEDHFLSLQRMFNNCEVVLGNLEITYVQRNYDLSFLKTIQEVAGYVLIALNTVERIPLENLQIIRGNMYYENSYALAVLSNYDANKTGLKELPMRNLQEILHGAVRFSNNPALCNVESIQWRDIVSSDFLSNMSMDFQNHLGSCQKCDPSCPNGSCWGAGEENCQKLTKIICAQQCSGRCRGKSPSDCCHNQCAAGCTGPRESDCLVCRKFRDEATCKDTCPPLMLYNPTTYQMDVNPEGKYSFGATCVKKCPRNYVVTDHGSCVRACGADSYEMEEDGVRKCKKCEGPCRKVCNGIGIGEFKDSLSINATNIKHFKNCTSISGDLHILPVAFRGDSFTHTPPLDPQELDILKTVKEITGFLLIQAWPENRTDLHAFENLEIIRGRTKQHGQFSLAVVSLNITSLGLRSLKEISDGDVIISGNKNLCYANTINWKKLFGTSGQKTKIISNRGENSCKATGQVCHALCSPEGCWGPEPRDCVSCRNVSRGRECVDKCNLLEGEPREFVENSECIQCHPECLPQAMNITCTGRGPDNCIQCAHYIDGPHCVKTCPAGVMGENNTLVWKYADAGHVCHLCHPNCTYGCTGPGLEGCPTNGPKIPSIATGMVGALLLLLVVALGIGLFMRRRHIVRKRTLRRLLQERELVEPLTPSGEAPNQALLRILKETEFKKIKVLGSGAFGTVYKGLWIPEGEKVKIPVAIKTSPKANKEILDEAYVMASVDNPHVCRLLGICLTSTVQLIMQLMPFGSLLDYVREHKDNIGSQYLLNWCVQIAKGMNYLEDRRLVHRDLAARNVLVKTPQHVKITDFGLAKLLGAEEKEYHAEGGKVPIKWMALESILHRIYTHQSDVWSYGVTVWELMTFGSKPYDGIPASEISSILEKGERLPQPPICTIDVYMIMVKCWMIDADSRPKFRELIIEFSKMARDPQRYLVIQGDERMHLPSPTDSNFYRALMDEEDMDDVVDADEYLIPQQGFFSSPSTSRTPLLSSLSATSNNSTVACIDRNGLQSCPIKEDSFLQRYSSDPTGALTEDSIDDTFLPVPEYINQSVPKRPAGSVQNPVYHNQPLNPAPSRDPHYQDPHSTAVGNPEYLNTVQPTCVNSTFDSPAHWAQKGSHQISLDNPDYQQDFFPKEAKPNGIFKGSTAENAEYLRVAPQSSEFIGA
Sequence of EGFR del19/C797S (P00533 with tags, fused parts or gaps DEL746-750/C797S): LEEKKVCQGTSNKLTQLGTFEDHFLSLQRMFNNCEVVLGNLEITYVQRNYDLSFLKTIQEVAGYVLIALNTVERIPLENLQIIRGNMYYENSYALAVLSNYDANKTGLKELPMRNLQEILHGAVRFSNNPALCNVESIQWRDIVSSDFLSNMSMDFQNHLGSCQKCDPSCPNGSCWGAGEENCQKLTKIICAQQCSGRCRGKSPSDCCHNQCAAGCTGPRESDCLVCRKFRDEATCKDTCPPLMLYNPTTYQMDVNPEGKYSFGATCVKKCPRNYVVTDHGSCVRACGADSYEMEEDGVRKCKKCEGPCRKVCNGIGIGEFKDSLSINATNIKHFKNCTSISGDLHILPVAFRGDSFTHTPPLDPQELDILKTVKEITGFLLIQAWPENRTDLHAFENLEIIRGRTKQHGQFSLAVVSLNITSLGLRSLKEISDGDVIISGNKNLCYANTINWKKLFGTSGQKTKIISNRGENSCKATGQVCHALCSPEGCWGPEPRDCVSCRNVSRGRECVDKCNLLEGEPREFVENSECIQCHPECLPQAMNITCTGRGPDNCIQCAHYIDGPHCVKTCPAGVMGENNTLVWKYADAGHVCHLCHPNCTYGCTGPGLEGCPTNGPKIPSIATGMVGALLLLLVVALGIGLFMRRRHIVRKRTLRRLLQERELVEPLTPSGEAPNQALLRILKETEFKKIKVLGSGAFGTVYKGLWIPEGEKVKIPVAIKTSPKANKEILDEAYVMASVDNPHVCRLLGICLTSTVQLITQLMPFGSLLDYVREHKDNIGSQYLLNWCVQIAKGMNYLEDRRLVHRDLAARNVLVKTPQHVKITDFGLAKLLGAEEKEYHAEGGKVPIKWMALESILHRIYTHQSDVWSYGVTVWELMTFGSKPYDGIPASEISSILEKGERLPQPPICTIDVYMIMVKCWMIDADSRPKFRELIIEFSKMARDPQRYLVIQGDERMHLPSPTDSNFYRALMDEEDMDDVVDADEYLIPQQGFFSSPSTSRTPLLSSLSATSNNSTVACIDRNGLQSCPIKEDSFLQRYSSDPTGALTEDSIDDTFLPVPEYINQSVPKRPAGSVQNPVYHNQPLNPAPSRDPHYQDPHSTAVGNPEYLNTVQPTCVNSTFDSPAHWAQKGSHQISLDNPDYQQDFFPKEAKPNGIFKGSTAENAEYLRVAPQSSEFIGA
Sequence of EGFR wildtype (WT) (P00533 25-1210): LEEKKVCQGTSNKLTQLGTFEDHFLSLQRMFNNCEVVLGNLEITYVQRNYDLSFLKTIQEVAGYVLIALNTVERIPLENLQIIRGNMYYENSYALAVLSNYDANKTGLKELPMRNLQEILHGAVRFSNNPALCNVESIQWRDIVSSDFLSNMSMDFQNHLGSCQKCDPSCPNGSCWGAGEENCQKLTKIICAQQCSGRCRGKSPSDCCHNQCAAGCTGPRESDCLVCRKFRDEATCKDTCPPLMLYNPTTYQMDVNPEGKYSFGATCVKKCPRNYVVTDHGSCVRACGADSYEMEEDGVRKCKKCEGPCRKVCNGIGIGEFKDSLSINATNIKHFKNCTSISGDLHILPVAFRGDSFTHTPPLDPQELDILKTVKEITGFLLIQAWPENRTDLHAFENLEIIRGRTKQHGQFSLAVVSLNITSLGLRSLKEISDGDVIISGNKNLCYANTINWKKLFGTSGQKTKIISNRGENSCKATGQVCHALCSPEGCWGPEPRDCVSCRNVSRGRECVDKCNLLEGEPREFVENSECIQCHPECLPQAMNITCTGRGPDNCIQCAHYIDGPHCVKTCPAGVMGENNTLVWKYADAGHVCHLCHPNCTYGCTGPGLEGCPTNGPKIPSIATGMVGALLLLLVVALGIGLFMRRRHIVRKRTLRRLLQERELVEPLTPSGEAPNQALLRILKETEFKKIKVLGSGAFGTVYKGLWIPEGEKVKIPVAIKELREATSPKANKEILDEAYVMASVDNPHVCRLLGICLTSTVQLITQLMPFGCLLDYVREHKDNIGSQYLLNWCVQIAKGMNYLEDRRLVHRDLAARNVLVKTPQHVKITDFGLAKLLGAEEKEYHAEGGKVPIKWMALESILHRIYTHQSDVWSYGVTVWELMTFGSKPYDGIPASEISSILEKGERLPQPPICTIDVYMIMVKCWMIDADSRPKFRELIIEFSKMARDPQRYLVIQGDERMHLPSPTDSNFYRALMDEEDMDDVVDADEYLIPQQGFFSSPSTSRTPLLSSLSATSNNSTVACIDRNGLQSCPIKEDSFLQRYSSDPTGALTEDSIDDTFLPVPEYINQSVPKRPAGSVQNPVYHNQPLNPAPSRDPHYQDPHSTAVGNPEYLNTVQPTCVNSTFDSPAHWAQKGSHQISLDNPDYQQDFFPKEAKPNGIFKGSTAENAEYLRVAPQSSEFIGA
Sequence of EGFR L858R/T790M/C797S (P00533 25-1210 T790M/C797S/L858R): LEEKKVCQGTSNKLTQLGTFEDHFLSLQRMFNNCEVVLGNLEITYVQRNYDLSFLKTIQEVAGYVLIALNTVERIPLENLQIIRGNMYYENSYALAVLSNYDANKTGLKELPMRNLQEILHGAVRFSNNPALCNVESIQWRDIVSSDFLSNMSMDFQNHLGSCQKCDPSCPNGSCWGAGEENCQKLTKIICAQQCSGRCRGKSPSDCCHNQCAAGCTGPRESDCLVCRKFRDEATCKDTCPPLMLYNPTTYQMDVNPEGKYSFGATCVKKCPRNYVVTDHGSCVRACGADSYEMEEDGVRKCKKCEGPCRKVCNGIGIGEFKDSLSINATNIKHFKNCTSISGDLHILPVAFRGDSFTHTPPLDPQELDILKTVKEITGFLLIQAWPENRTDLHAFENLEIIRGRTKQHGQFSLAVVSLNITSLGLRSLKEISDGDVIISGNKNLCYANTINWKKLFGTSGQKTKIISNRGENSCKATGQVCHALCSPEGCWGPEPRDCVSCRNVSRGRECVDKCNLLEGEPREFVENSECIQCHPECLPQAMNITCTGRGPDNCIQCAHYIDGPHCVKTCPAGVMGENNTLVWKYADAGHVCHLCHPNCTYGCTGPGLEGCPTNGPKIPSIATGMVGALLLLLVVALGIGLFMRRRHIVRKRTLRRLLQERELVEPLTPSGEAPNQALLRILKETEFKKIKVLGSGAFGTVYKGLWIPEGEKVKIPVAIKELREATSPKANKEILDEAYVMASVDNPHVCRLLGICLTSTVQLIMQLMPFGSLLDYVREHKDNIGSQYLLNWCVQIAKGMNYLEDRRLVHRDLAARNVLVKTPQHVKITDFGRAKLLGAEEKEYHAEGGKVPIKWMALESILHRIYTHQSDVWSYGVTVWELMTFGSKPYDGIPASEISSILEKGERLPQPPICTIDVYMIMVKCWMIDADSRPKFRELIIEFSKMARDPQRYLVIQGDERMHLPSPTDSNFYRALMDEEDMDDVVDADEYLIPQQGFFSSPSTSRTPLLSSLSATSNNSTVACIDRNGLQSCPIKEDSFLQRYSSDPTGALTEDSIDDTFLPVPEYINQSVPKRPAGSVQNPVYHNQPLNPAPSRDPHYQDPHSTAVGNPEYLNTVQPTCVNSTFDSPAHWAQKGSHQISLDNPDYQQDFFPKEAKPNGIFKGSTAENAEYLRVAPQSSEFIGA

| SMILES | IC50 (EGFR L858R/C797S; [1]) [nM] | IC50 (EGFR del19/T790M/C797S; [2]) [nM] | IC50 (EGFR del19/C797S; [3]) [nM] | IC50 (EGFR L858R/T790M/C797S; [4]) [nM] | IC50 (EGFR wildtype (WT); [5]) [nM] | IC50 (EGFR L858R/C797S; [6]) [nM] | IC50 (EGFR del19/T790M/C797S; [7]) [nM] | IC50 (EGFR del19/C797S; [8]) [nM] | IC50 (EGFR L858R/T790M/C797S; [9]) [nM] | IC50 (EGFR wildtype (WT); [10]) [nM] | pIC50 (EGFR L858R/C797S; Km ATP, read-out: IC50 L858R/C797S, Km ATP) | pIC50 (EGFR del19/T790M/C797S; Km ATP, read-out: IC50 del19/T790M/C797S, Km ATP) | pIC50 (EGFR del19/C797S; Km ATP, read-out: IC50 del19/C797S, Km ATP) | pIC50 (EGFR L858R/T790M/C797S; Km ATP, read-out: IC50 L858R/T790M/C797S, Km ATP) | pIC50 (EGFR wildtype (WT); Km ATP, read-out: IC50 WT, Km ATP) |
| --- | --- | --- | --- | --- | --- | --- | --- | --- | --- | --- | --- | --- | --- | --- | --- |
| CC(O)C(C)(C)Nc1cc(Nc2ccnc(-c3cnn(S(=O)(=O)C4CC4)c3)n2)ncc1-c1ccn(C(F)F)n1 (stereo not shown) [Example 7, 3-((2-((2-(1-(Cyclopropylsulfonyl)-1H-pyrazol-4-yl)pyrimidin-4-yl)amino)-5-(1-(difluoromethyl)-1H-pyrazol-3-yl)pyridin-4-yl)amino)-3-methylbutan-2-ol] |  |  |  |  |  | 246 | 2.6 | 281 | 6 | > 10000 |  |  |  |  |  |
| O=S(=O)(C1CC1)n1cc(-c2nccc(Nc3cc(NC4CCC5(CC4)CNC5)c(-c4ccn(C(F)F)n4)cn3)n2)cn1 [Example 27, N^2-(2-(1-(Cyclopropylsulfonyl)-1H-pyrazol-4-yl)pyrimidin-4-yl)-5-(1-(difluoromethyl)-1H-pyrazol-3-yl)-N^4-(2-azaspiro[3.5]nonan-7-yl)pyridine-2,4-diamine] | 0.5 | 0.7 | 0.2 | 0.2 | 0.7 | 2.2 | 0.6 | 0.3 | 0.4 | 162 |  |  |  |  |  |
| C[C@]1(O)CC[C@@H](Nc2cc(Nc3ccnc(-c4cnn(C5CC5)c4)n3)ncc2-c2ccn(C(F)F)n2)CC1 [Example 140, (1s,4s)-4-((2-((2-(1-Cyclopropyl-1H-pyrazol-4-yl)pyrimidin-4-yl)amino)-5-(1-(difluoromethyl)-1H-pyrazol-3-yl)pyridin-4-yl)amino)-1-methylcyclohexan-1-ol] | 7.1 | 1 | 27.3 | 1.1 | 137 | 91.5 | 3.7 | 37.2 | 3.4 | 8960 |  |  |  |  |  |
| O=S(=O)(C1CC1)n1cc(-c2nccc(Nc3cc(NC4CCC(CCO)CC4)c(-c4ccn(C(F)F)n4)cn3)n2)cn1 (stereo not shown) [Example 133, 2-((1r,4r)-4-((2-((2-(1-(Cyclopropylsulfonyl)-1H-pyrazol-4-yl)pyrimidin-4-yl)amino)-5-(1-(difluoromethyl)-1H-pyrazol-3-yl)pyridin-4-yl)amino)cyclohexyl)ethan-1-ol] | 1 | 0.3 | 0.3 | 0.1 | 92.1 | 99.3 | 0.5 | 1.4 | 3.2 | > 10000 |  |  |  |  |  |
| CN[C@H]1CC[C@@H](Nc2cc(Nc3ccnc(-c4cnn(S(=O)(=O)C5CC5)c4)n3)ncc2-c2ccco2)CC1 [Example 87, N^2-(2-(1-(Cyclopropylsulfonyl)-1H-pyrazol-4-yl)pyrimidin-4-yl)-5-(furan-2-yl)-N^4-((1s,4s)-4-(methylamino)cyclohexyl)pyridine-2,4-diamine] |  |  |  |  |  | 31.4 | 0.2 | 6.9 | 0.7 | > 10000 |  |  |  |  |  |
| C=CCCS(=O)(=O)n1cc(-c2nccc(Nc3cc(N[C@H]4CC[C@@](C)(O)CC4)c(-c4ccn(C(F)F)n4)cn3)n2)cn1 [Example 117, (1s,4s)-4-((2-((2-(1-(But-3-en-1-ylsulfonyl)-1H-pyrazol-4-yl)pyrimidin-4-yl)amino)-5-(1-(difluoromethyl)-1H-pyrazol-3-yl)pyridin-4-yl)amino)-1-methylcyclohexan-1-ol] | 0.2 | 0.5 | 0.8 | 0.5 | 1.6 |  |  |  |  |  |  |  |  |  |  |
| Cn1ccc(-c2cnc(Nc3ccnc(-c4cnn(S(=O)(=O)C5CC5)c4)n3)cc2NC[C@H]2CC[C@H](NCC(F)F)CC2)n1 [Example 129, N^2-(2-(1-(Cyclopropylsulfonyl)-1H-pyrazol-4-yl)pyrimidin-4-yl)-N^4-(((1r,4r)-4-((2,2-difluoroethyl)amino)cyclohexyl)methyl)-5-(1-methyl-1H-pyrazol-3-yl)pyridine-2,4-diamine] |  |  |  |  |  | 14.3 | 0.7 | 2 | 0.7 | > 10000 |  |  |  |  |  |
| O=S(=O)(C1CC1)n1cc(-c2nccc(Nc3cc(NC[C@H]4CC[C@@H](O)C4)c(-c4ccn(C(F)F)n4)cn3)n2)cn1 [Example 119, (1R,3S)-3-(((2-((2-(1-(Cyclopropylsulfonyl)-1H-pyrazol-4-yl)pyrimidin-4-yl)amino)-5-(1-(difluoromethyl)-1H-pyrazol-3-yl)pyridin-4-yl)amino)methyl)cyclopentan-1-ol] | 0.4 | 0.4 | 0.5 | 0.1 | 6.1 | 15.1 | 0.4 | 0.5 | 0.6 | > 10000 |  |  |  |  |  |
| O=S(=O)(C1CC1)n1cc(-c2nccc(Nc3cc(N[C@H]4CC[C@@H](NCCF)CC4)c(-c4ccn(C(F)F)n4)cn3)n2)cn1 [Example 9, N^2-(2-(1-(Cyclopropylsulfonyl)-1H-pyrazol-4-yl)pyrimidin-4-yl)-5-(1-(difluoromethyl)-1H-pyrazol-3-yl)-N^4-((1s,4s)-4-((2-fluoroethyl)amino)cyclohexyl)pyridine-2,4-diamine] |  |  |  |  |  | 7.6 | 0.5 | 4.3 | 0.5 | 7100 |  |  |  |  |  |

The remaining lines, values ahead:

| IC50 (EGFR L858R/C797S; [1]) [nM] | IC50 (EGFR del19/T790M/C797S; [2]) [nM] | IC50 (EGFR del19/C797S; [3]) [nM] | IC50 (EGFR L858R/T790M/C797S; [4]) [nM] | IC50 (EGFR wildtype (WT); [5]) [nM] | IC50 (EGFR L858R/C797S; [6]) [nM] | IC50 (EGFR del19/T790M/C797S; [7]) [nM] | IC50 (EGFR del19/C797S; [8]) [nM] | IC50 (EGFR L858R/T790M/C797S; [9]) [nM] | IC50 (EGFR wildtype (WT); [10]) [nM] | pIC50 (EGFR L858R/C797S; Km ATP, read-out: IC50 L858R/C797S, Km ATP) | pIC50 (EGFR del19/T790M/C797S; Km ATP, read-out: IC50 del19/T790M/C797S, Km ATP) | pIC50 (EGFR del19/C797S; Km ATP, read-out: IC50 del19/C797S, Km ATP) | pIC50 (EGFR L858R/T790M/C797S; Km ATP, read-out: IC50 L858R/T790M/C797S, Km ATP) | pIC50 (EGFR wildtype (WT); Km ATP, read-out: IC50 WT, Km ATP) | SMILES |
| --- | --- | --- | --- | --- | --- | --- | --- | --- | --- | --- | --- | --- | --- | --- | --- |
| 6.1 | 0.4 | 11.5 | 0.1 | 7.5 |  |  |  |  |  |  |  |  |  |  | CN(C)C[C@H]1C[C@H](CNc2cc(Nc3ccnc(-c4cnn(S(=O)(=O)C5CC5)c4)n3)ncc2-c2ccn(CC(F)F)n2)C1 [Example 249, N^2-(2-(1-(Cyclopropylsulfonyl)-1H-pyrazol-4-yl)pyrimidin-4-yl)-5-(1-(2,2-difluoroethyl)-1H-pyrazol-3-yl)-N^4-(((1r,3r)-3-((dimethylamino)methyl)cyclobutyl)methyl)pyridine-2,4-diamine] |
|  |  |  |  |  |  |  |  |  |  | 7.92 | 8.96 | 8.01 | 8.74 | 7.02 | Cn1nc(-c2cnc(Nc3ccnc(-c4cnn(S(=O)(=O)C5CC5)c4)c3)nc2N[C@H]2CC[C@@](C)(O)CC2)cc1C(F)(F)F [Example 356, (1s,4s)-4-((2-((2-(1-(Cyclopropylsulfonyl)-1H-pyrazol-4-yl)pyridin-4-yl)amino)-5-(1-methyl-5-(trifluoromethyl)-1H-pyrazol-3-yl)pyrimidin-4-yl)amino)-1-methylcyclohexan-1-ol] |
| 7.1 | 0.8 | 2 | 0.4 | 7.5 | 178 | 0.6 | 4.9 | 0.6 | 3600 |  |  |  |  |  | CN(C)CC1(C)CCC(Nc2cc(Nc3ccnc(-c4cnn(S(=O)(=O)C5CC5)c4)n3)ncc2-c2ccn(C)n2)CC1 (stereo not shown) [Example 238, N^2-(2-(1-(Cyclopropylsulfonyl)-1H-pyrazol-4-yl)pyrimidin-4-yl)-N^4-(4-((dimethylamino)methyl)-4-methylcyclohexyl)-5-(1-methyl-1H-pyrazol-3-yl)pyridine-2,4-diamine] |
| 0.3 | 0.1 | 0.5 | 0.1 | 1.6 | 3.9 | 0.2 | 0.7 | 0.5 | 582 |  |  |  |  |  | O=S(=O)(C1CC1)n1cc(-c2nccc(Nc3cc(N[C@H]4CC[C@@H](CO)CC4)c(-c4ccn(C5CC5)n4)cn3)n2)cn1 [Example 297, ((1s,4s)-4-((5-(1-Cyclopropyl-1H-pyrazol-3-yl)-2-((2-(1-(cyclopropylsulfonyl)-1H-pyrazol-4-yl)pyrimidin-4-yl)amino)pyridin-4-yl)amino)cyclohexyl)methanol] |
| 0.2 | 0.3 | 0.2 | 0.1 | 0.7 | 0.7 | 0.2 | 0.3 | 0.1 | 150 |  |  |  |  |  | O=S(=O)(C1CC1)n1cc(-c2nccc(Nc3cc(N[C@H]4CC[C@@H](CN5CCC5)CC4)c(-c4ccn(CC(F)F)n4)cn3)n2)cn1 [Example 247, N^4-((1s,4s)-4-(Azetidin-1-ylmethyl)cyclohexyl)-N^2-(2-(1-(cyclopropylsulfonyl)-1H-pyrazol-4-yl)pyrimidin-4-yl)-5-(1-(2,2-difluoroethyl)-1H-pyrazol-3-yl)pyridine-2,4-diamine] |
| 0.1 | 0.1 | 0.1 | 0.1 | 0.3 | 0.5 | 0.2 | 0.3 | 0.1 | 48.8 |  |  |  |  |  | CN(C)CCCn1ccc(-c2cnc(Nc3ccnc(-c4cnn(S(=O)(=O)C5CC5)c4)n3)cc2N[C@H]2CC[C@@H](CO)CC2)n1 [Example 296, ((1s,4s)-4-((2-((2-(1-(Cyclopropylsulfonyl)-1H-pyrazol-4-yl)pyrimidin-4-yl)amino)-5-(1-(3-(dimethylamino)propyl)-1H-pyrazol-3-yl)pyridin-4-yl)amino)cyclohexyl)methanol] |
